Test results reported in patent US10624917B2, “Compositions and methods useful for treating or preventing liver diseases or disorders, and promoting weight loss” (YALE UNIVERSITY, priority 2014, dated 2020).

Assays:
Format in all cases: cell-based, mouse
[1] = tested on: Il1b and other genes in PECs; experiment: Quantitative real-time RT-PCR gene expression in PECs; settings: for ability to supersede LPS tolerance for TIMP-1, VEGF and GLUT-1 gene expression / expression level of IL6 / expression level of Il1b / expression level of Il4: LPS primed PECs; for expression level of IL6 / expression level of Il1b / expression level of Il4: over 6 and 24 hours; for Il1b mRNA expression: PECs pretreated with LPS for 16 hours (LPS tolerant)
Method: (§1) FIGS. 3A-3I illustrate the finding that adenosine supersedes LPS induced tolerance and increases IL-1β production by upregulating transcription of pro-IL-1β via cAMP-PKA pathway. PECs were used in all of the following experiments. FIG. 3A: Primed (pri) with LPS (100 ng/ml) for 16 hours followed by stimulation (stim) with LPS (100 ng/ml), or NECA (10 μM) or CGS21680 (10 μM) in the presence or absence of LPS (100 ng/ml) for 6 hours. FIG. 3B: Treated with forskolin for 6 hours as indicated doses with and without LPS priming FIG. 3C: Treated with or without NECA (10 μM), CGS21680 (10 μM) or db-cAMP (200 μM) for 6 hours. FIG. 3D: LPS primed and treated with NECA or CGS21680 in the presence and absence of SQ22536, H89 and PKi. FIG. 3E: Primed with LPS for 16 hours and treated with ATP for 20 min, followed by CGS 21680 in the presence or absence of the adenylyl cyclase and PKA inhibitors SQ22536 and H-89. FIG. 3F: Primed with LPS and treated with or without NECA (10 μM) or db-cAMP (200 μM) for 6 hours. FIG. 3G: Treated with or without CGS21680 (10 μM) for 3 hours, and transcription was stopped by adding […] actinomycin D, and RNA samples collected at indicated times-points. FIG. 3H: LPS primed PECs obtained from wild type or A2AR-cKO mice were stimulated with NECA (10 μM) for 6 hours. The cells were harvested and RNA isolated after each treatment and the gene expression of Il1b and other genes as indicated quantified by real-time PCR using specific primers. FIG. 3I: Primed with LPS for 16 hours and treated with ATP for 20 min, followed by CGS 21680 in the presence or absence of SQ22536 or H-89 Immunoblot analysis of the proIL-1β caspase-1 in cell lysate was performed by specific […] and anti caspase-1 p10 antibodies (FIGS. 3C, 3E-3F, 3I). Data are expressed as the mean±SD from three independent experiments Immunoblots shown are representative results from at least three independent experiments. *p<0.05 determined by Student's t-test.
FIGS. 9A-9H illustrate changes in expression of cytokines and tissue repair genes in peritoneal macrophages in response to adenosine agonists. LPS naive or LPS primed PECs were stimulated with LPS (100 ng ml^−1), CGS21680 (10 μM) or NECA (10 μM) at different time points as indicated. The cells were harvested and RNA isolated after each treatment, and the gene expression of ProIL-1β (Il1b) (FIG. 9A), IL-6 (Il6) (FIG. 9B), IL-4 (Il4) (FIG. 9C), TNF-α (tnfa) (FIG. 9D), TIMP-1 (Timp1) (FIG. 9E), VEGF (vegf) (FIG. 9F), PGK-1 (Pgk1) (FIG. 9G), GLUT-1 (Slc2a1) (FIG. 9H) quantified by real-time PCR using each specific gene primer set as listed. Data are expressed as the mean±SD from three independent experiments. *p<0.05 determined by Student's t-test.
Total RNA was extracted using TRIZOL reagent (Invitrogen), and cDNA was generated with an oligo (dT) primer and the Superscript II system (Invitrogen, USA) followed by analysis using LightCycler 480 system (Roche). q-PCR was performed for Il1b using commercial primer-probe sets (Applied Biosystems Inc.) with DNA master Mix (Roche). Expression of GAPDH was used to standardize the samples, and the results were expressed as a ratio relative to control; q-PCR was performed for tnfa, 116, Txnip, Nlrp3, Hif1a, Timp1, using LightCycler 480 SYBR Green I master mix (Roche). Results were normalized based on the expression of β-actin.

[2] = tested on: active caspase-1 / pro-IL-1β in PECs; experiment: Western blot of caspase-1 and pro-IL-1β in PECs; settings: for up-regulation of Pro-IL-1β: 6 hours, FIG. 3C
Method: FIGS. 2A-2H illustrate the finding that adenosine mediates increase in IL-1β via the A2A receptor and amplifies signal 1 and signal 2 pathways. FIG. 2A: LPS primed PECs were treated with NECA (10 μM) in the presence or absence of […] different adenosine receptor antagonists for A1 (DPCPX, 10 nM), A2A (ZM 241385, 10 μM), A2B (MRS1706, 10 nM), A3 (MRS1523, 5 μM), or their combinations for 1 hour, and pulsed with ATP for 20 min. FIGS. 2A-2B: A2A receptor specific agonist (CGS21680) and antagonist ZM 241385 increase and block IL-1β production respectively. […] FIG. 2D: PEC's from A2A receptor deficient cells have low IL-1β production, which is not increased by NECA and CGS 21680. FIG. 2E: CGS21680 increases induction of Il1b mRNA expression, and this was decreased in A2A receptor deficient cells. FIG. 2F: Loss of the A2A receptor in macrophages results in much lower levels of Il1b protein A expression in response to LPS. FIG. 2G: CGS21680 and […] increases and decreases production of cleaved caspase-1, respectively. FIG. 2H: The production of cleaved caspase-1 is decreased in A2A receptor deficient macrophages. Data are expressed as the mean±SD from at least three independent experiments Immunoblots shown are representative results from at least three independent experiments. p<0.05 determined by Student's t-test.
as §1
Liver tissue lysates or PECs were lysed in RIPA buffer (10 mM phosphate buffer pH 7.4, 150 mM NaCl, 1% NP-40, 0.5% sodium deoxycholate, 0.1% SDS) supplemented with complete protease inhibitor cocktail (Roche) and 2 mM dithiothreitol. Lysates were resolved in 4-12% Tris-glycine gradient gels (Invitrogen) and transferred to nitrocellulose (Invitrogen) by electro-blotting. The following antibodies were used: rabbit anti-caspase-1 p10 (SC-514, Santa Cruz), goat anti-mouse IL-1β (BAF401, R&D Systems), Rabbit antimouse HIF-1α (NB100-449, Novus Biologicals, Littleton, Colo.).

[3] = tested on: IL-1β production in murine peritoneal macrophages (PECs); experiment: IL-1β secretion (ELISA) by primed, ATP-pulsed peritoneal macrophages (PECs); settings: LPS and monosodium urate (MSU) crystals

SMILES | ability to supersede LPS tolerance for TIMP-1, VEGF and GLUT-1 gene expression [1] | expression level of IL6 [1] | expression level of Il1b [1] | expression level of Il4 [1] | Il1b mRNA expression [1] | Il1b transcript stability (rate of loss of Il1b mRNA) ([1]; transcription stopped with actinomycin D) | up-regulation of Pro-IL-1β [2] | active caspase-1 ([2]; compound alone) | active (cleaved) caspase-1 ([2]; in response to LPS/ATP) | IL-1β production [3]
CCNC(=O)[C@H]1O[C@@H](n2cnc3c(N)nc(NCCc4ccc(CCC(=O)O)cc4)nc32)[C@H](O)[C@@H]1O [CGS21680] | consistent ability | increase | increase | increase | dramatic increase | did not affect transcript stability | induced up-regulation | did not result in detectable active caspase-1 | increases | –
CCNC(=O)[C@H]1O[C@@H](n2cnc3c(N)ncnc32)[C@H](O)[C@@H]1O [NECA, 5′-(N-ethylcarboxamido) adenosine] | consistent ability | increase | increase | increase | dramatic increase | – | induced up-regulation | – | – | increased
